Values of other authors as cited in patent US20090023784A1, “USE OF DEFERIPRONE AND METHODS TO TREAT AND/OR PREVENT FRIEDREICH ATAXIA RESULTING FROM INTRACELLULAR MISHANDLING OF IRON” (priority 2006, published 2009).

Tested on: intracellular iron pools of macrophages, hepatocytes, and cardiomyocyte cell lines
Conditions: living cells, fluorescence probes; cited from earlier work

In the case of `CC(=O)N(O)CCCCCNC(=O)CCC(=O)N(O)CCCCCNC(=O)CCC(=O)N(O)CCCCCN` [desferrioxamine], the “access to intracellular iron pools / chelation” value is given as “slow”.
